In patent US10154988B2, “Methods and compositions for treating schizophrenia” (The Johns Hopkins University, priority 2012, dated 2018):

Legend:
MAM-treated rats [1] = conditions: cited from earlier work
MAM-treated rats [2] = conditions: rat, in vivo; cited from earlier work
[3] = test system: Memory-impaired aged rats; assay: Radial Arm Maze task, 2-hr delay, acute brivaracetam or seletracetam; type: in vivo, rat; conditions: 0.0625-4 mg/kg i.p. 30-40 min before test; repeated measures ANOVA (brivaracetam p=0.039, seletracetam p=0.009)
Protocol: (§1) The radial arm maze experiments uses acute administration of seletracetam (0-4 mg/kg), brivaracetam (0-4 mg/kg), or saline vehicle given by intraperitoneal injection (in a volume of 1 ml/kg) 30-40 min prior to test sessions. In the chronic treatment experiment, memory-impaired aged rats are implanted subcutaneously in the intrascapular region with osmotic mini-pumps (ALZET, Durect Corporation, Cupertino, Calif.) with brivaracetam (2 mg/kg/day) or saline vehicle starting two weeks prior to assessment in the water maze.
A radial arm maze (RAM) task is used to assess effects of acute drug treatment with seletracetam and brivaracetam. This protocol allows within-subject assessment across drugs at different doses. The radial maze consists of eight arms projecting from each side of an octagonal center platform, with a food well located at the distal end of each arm. Plexiglas blocks can be positioned to prevent entry into any arm. Extra-maze cues are provided in the room surrounding the maze and illumination is provided by an overhead light.
Pre-training, as described in detail in Chappell et al. Neuropharmacology 37: 481-487, (1998), consists of habituation, standard win-shift training, and win-shift training with delays interposed between information and memory test phases. […]

aged-impaired (AI) rats = assay: eight-arm Radial Arm Maze task, one-hour delay (levetiracetam, valproate, combination); type: in vivo, rat; conditions: valproate on its own
Protocol: The effects of levetiracetam on the spatial memory retention of aged-impaired (AI) rats are assessed in a Radial Arm Maze (RAM) behavioral task using vehicle control and five different dosage levels of levetiracetam (1.25 mg/kg/day, 2.5 mg/kg/day, 5 mg/kg/day, 10 mg/kg/day and 20 mg/kg/day). RAM behavioral tasks are preformed on ten AI rats. All six treatment conditions are tested on all ten rats, as described above for the MWM test. The RAM apparatus used consists of eight equidistantly-spaced arms. An elevated maze arm (7 cm width×75 cm length) projects from each facet of an octagonal center platform (30 cm diameter, 51.5 cm height). Clear side walls on the arms are 10 cm high and are angled at 65° to form a trough. A food well (4 cm diameter, 2 cm deep) is located at the distal end of each arm. Froot Loops™ (Kellogg Company) are used as rewards. Blocks constructed of Plexiglas™ (30 cm height×12 cm width) can be positioned to prevent entry to any arm. Numerous extra maze cues surrounding the apparatus are also provided. The AI rats are initially subjected to a pre-training test (Chappell et al. Neuropharmacology 37: 481-487, 1998). The pre-training test consists of a habituation phase (4 days), a training phase on the standard win-shift task (18 days) and another training phase (14 days) in which a brief delay is imposed between presentation of a subset of arms designated by the experimenter (e.g., 5 arms available and 3 arms blocked) and completion of the eight-arm win-shift task (i.e., with all eight arms available). In the habituation phase, rats are familiarized to the maze for an 8-minute session on four consecutive days. In each of these sessions food rewards are scattered on the RAM, initially on the center platform and arms and then progressively confined to the arms. After this habituation phase, a standard training protocol is used, in which a food pellet is located at the end of each arm. Rats receive one trial each day for 18 days. Each daily trial terminates when all eight food pellets have been obtained or when either 16 choices are made or 15 minutes had elapsed. After completion of this training phase, a second training phase is carried out in which the memory demand is increased by imposing a brief delay during the trial. At the beginning of each trial, three arms of the eight-arm maze are blocked. Rats are allowed to obtain food on the five arms to which access is permitted during this initial ‘information phase’ of the trial. Rats are then removed from the maze for 60 seconds, during which time the barriers on the maze are removed, thus allowing access to all eight arms. Rats are then placed back onto the center platform and allowed to obtain the remaining food rewards during this ‘retention test’ phase of the trial. The identity and configuration of the blocked arms varies across trials. The number of “errors” the AI rats make during the retention test phase is tracked. An error occurs in the trial if the rats enter an arm from which food had already been retrieved in the pre-delay component of the trial, or if it re-visits an arm in the post-delay session that has already been visited. After completion of the pre-training test, rats are subjected to trials with more extended delay intervals, i.e., a one-hour delay, between the information phase (presentation with some blocked arms) and the retention test (presentation of all arms). During the delay interval, rats remain off to the side of the maze in the testing room, on carts in their individual home cages. AI rats are pretreated 30-40 minutes before daily trials with a one-time shot of the following six conditions: 1) vehicle control (0.9% saline solution); 2) levetiracetam (1.25 mg/kg/day); 3) levetiracetam (2.5 mg/kg/day); 4) levetiracetam (5 mg/kg/day); 5) levetiracetam (10 mg/kg/day); 6) levetiracetam (20 mg/kg/day); […] Injections are given every other day with intervening washout days. Each AI rat is treated with all six conditions within 23 days of testing. […]

[4] = test system: Memory-impaired aged rats; assay: water maze probe test after chronic brivaracetam (osmotic mini-pumps); type: in vivo, rat; conditions: 2 mg/kg/day
Protocol: as §1
Rats are trained and tested in a novel water maze environment to assess the effect of drug treatment. The water maze used here is housed in a different building and is surrounded by curtains with a novel set of patterns relative to the maze used for initial assessment of cognitive status. The training protocol consists of 6 trials per day for 2 days to locate a submerged escape platform. On each trial, a rat is released in the maze from one of four equally spaced starting positions around the perimeter of the pool. The starting position varies from trial to trial. […] The rat is then removed from the platform and placed in a holding cage for another 40 s before the next trial. Approximately 24 hrs after the last training trial, a probe test in the absence of the escape platform is given to assess spatial memory.

## C#Cc1ccc2c(c1)C(c1ccccc1F)=N[C@H](C)c1c(C(=O)OCC)ncn1-2 [SH-053-2′F—R—CH3]
MAM-treated rats [1]; rat, in vivo
  increased locomotor response to amphetamine in MAM-treated rats: reduced
MAM-treated rats [1]; saline-treated and MAM-treated animals
  cortical-evoked responses of HPC neurons: diminished cortical-evoked responses
MAM-treated rats [1]; systemic or infused into the ventral HPC, to levels of saline-treated rats
  number of spontaneously active DA neurons in the VTA of MAM rats: reduces the number of spontaneously active DA neurons

## NC1=N[C@H](O)[C@H]2[C@H]3O[C@]4(O)O[C@@H]([C@@H](O)[C@@]2(N1)[C@@H]4O)[C@]3(O)CO [tetrodotoxin]
MAM-treated rats [2]
  augmented amphetamine-induced locomotor behavior: normalized
  elevated DA neuron population activity: completely reversed

## CC[C@@H](C(N)=O)N1C[C@H](C=C(F)F)CC1=O [seletracetam]
[3]
  number of errors in the retention phase after the 2-hr delay, effect of dose: significant effect as a function of dose

## CCCC(CCC)C(=O)O [valproate]
aged-impaired (AI) rats; 25 mg/kg subcutaneous
  reducing the number of errors in the radial arm maze: not at 25 mg/kg or 50 mg/kg
aged-impaired (AI) rats; 50 mg/kg subcutaneous
  reducing the number of errors in the radial arm maze: not at 25 mg/kg or 50 mg/kg
aged-impaired (AI) rats; 100 mg/kg subcutaneous
  reducing the number of errors in the radial arm maze: effective at 100 mg/kg

## CCC[C@@H]1CC(=O)N([C@@H](CC)C(N)=O)C1 [brivaracetam]
[4]; 14 days, n=3/group, t(2)=10.000, p=0.010
  spatial bias for the target quadrant compared to the other quadrants: significant spatial bias
[4]; t(4)=3.109, p=0.036
  time in the target annulus versus vehicle-treated rats: significantly more time in the target annulus
[4]; t(4)=3.881, p=0.018
  time in the target quadrant versus vehicle-treated rats: significantly more time in the target quadrant
[3]
  number of errors in the retention phase after the 2-hr delay, effect of dose: significant effect as a function of dose
